Laboratory results as given in patent US3987055A, “Azasteroids compounds and derivatives” (The Board of Regents for the Oklahoma Agricultural & …, priority 1974, dated 1976).
Where “and” joins values, the source holds several entries; their conditions need not be identical. Identical values can stand only once.

Experiments:
KB cells [1] = test: relative plating efficiency of KB cells (colony formation, 7 days); assay type: cell-based, human
Experimental: The KB cells were plated in plastic tissue culture dishes and grown in a 5% CO2 gas phase incubator for 7 days. The medium was removed, the plates washed with Hanks' salt solution and the cells stained with a 0.5% aqueous crystal violet solution, rinsed and dried. The colonies were counted and the relative plating efficiency calculated using the number of control colonies as 100 percent.

rat testis tubules [2] = test: lysine-U-14C incorporation into protein by rat testis tubules in vitro; assay type: cell-based
Experimental: (§1) For these investigations the compounds were diluted in a minimal amount of ethanol and further diluted in saline (0.85%) so that the final concentration was 1 mg/ml. The compounds were placed in solution and gassed under N2 and stored at 5° C until used 2 days later for the in vitro incubation studies. Details of the in vitro incubation procedures may be found in Endocrinology 89:791-800 (1971).
The effects of the compounds on the incorporation of lysine -U-^14 C into trichloroacetic (TCA) precipitable protein of rat testes was investigated by incubating about 200 mg of teased testis tubules from mature rats in a 25 ml Erlenmeyer flask containing 3 ml of Krebs Ringer bicarbonate buffer (pH 7.4), L-lysine-U-^14 C (0.5 μCi; 0.1mM), glucose (10 mM) and 0.25 ml of the azasteroid to be tested. The flasks were incubated for 1 hour at 33° C under 95% O2 : 5% CO2 and the TCA precipitable protein was isolated and an aliquot used to measure radioactivity.
CPM = counts per minute. All compounds were tested in a concentration of […]

[3] = tested on: acid phosphatase, KB and L-M cells; test: relative acid phosphatase staining (permeability of lysosomal membrane) of KB and L-M cells; assay type: cell-based, human (KB) and mouse (L-M); details: control experiment with Triton X-100
L-M cells [4] = test: growth inhibition of mouse L-M cell line; assay type: cell-based
Experimental: Cells (1 × 10^5 /ml) were added to the "incubated" compound-containing medium.

L-M cells [5] = test: uptake and incorporation of 3H-thymidine, 3H-uridine and 14C-leucine by L-M cells; assay type: cell-based, mouse; details: 15 μg/ml
Experimental: ^3 H-Thymidine (10 μCi), or ^3 H-uridine (10 μCi), or ^14 C-leucine (5 .rho.Ci), was added to suspension cultures of L-M cells (8 × 10^5; /ml) in McCoy's 5a modified medium containing either 0 or 15 μg/ml of compound 5c. The cells were incubated at 37° C. One ml samples were removed at varying intervals and the rates of uptake and incorporation were determined from the liner portion of radioactivity versus time curves.

KB cells [6] = test: colony and cell morphology of KB cells; assay type: cell-based, human; details: 10 and 20 μg/ml
Experimental: Differences in cell morphology were also observed. […] Since the difference in staining density could be the result of modification of intracellular structures, such as lysosomes, experiments were performed to determine the effect of the compounds on the permeability of lysosomal membrane.

rat testis tubules [7] = test: glucose oxidation (glucose-U-14C) by rat testis tubules in vitro; assay type: cell-based
Experimental: as §1
The effects of these compounds on glucose oxidation by testis tubules was examined by incubating about 200 mg of teased testis tubules from mature rats in a 25 ml Erlenmeyer flask containing 3 ml of Krebs Ringer bicarbonate buffer (pH 7.4), D-glucose-U-^14 C (0.5 μCi; 10mM) and 0.25 ml of the azasteroid (1 mg/ml) to be tested. The flasks were incubated for 2 hours at 33° C under 95% O2 :5% CO2. The reaction was terminated by adding 0.25 ml of 5 N H2 SO4. Carbon dioxide was trapped in 0.25 ml of hydroxide of Hyamine. The radioactivity present in the Hyamine was determined by liquid scintillation spectrometry. This table includes a detailed summary of the results obtained and an average for each compound. […] Thus, the compounds have potential for antifertility activity in the control of wild rodent populations and possibly stray animals such as dogs and cats.
CPM = counts per minute. Glucose-U-^14 C activity was 0.5 millicurie.
All compounds were tested in a concentration of 250 mg per flask.

KB cells [8] = test: growth inhibition of human tumor KB cell line; assay type: cell-based; details: 10 μg/ml or greater, read-out: concentration at which growth was inhibited
Experimental: For example, growth of both the human tumor KB* and the mouse L-M** cell lines was inhibited when the cells were grown in media containing 10 μg/ml or greater

[9] = tested on: acid phosphatase, KB and L-M cells; test: relative acid phosphatase staining (permeability of lysosomal membrane) of KB and L-M cells; assay type: cell-based, human (KB) and mouse (L-M); parameters: key to Relative acid phosphatase staining: light: cells showing only a few scattered granules; medium: more dense but distinct isolated granules were still detected; heavy: a more intense staining with fewer discrete granules; details: 20 μg/ml
Experimental: KB and L-M cells were grown on coverslips in medium 199 with 10% calf serum for the 24 hour growth prior to staining in the presence or absence of compound 5c (20 μg/ml) or compound 5d (20 μg/ml). The cells were washed in Hanks' salt solution, incubated at 37° C in Gomori's substrate solution for 1, 2, or 3 hours, washed, treated with a 1% solution of ammonium sulfide, washed, mounted and observed microscopically. Light staining was designated as cells showing only a few scattered granules; medium staining was more dense but distinct isolated granules were still detected; and heavy staining a more intense staining with fewer discrete granules. Heavy staining denotes increased phosphatase activity.
The acid phosphatase activity was measured in KB and L-M cells grown in medium in the presence or absence compound 5c or 5d (20 μg/ml) for 2 or 24 hours prior to staining (Table 2). Quantitative evaluation of the relative staining intensity of the lysosomes was compared in the treated and untreated cells. […] Thus, cells grown in the presence of compound 5c accumulate the phosphatase substrate within the lysosomes much more rapidly than the control or compound 5d treated cells indicating the compounds ability to alter membrane permeability and thus regulate the accumulation of essential metabolites. Control of this cellular capacity permits regulation of cell division so important in cancer chemotherapy. Since the permeation of the substrate is the rate-limiting step in the phosphatase determination, compound 5c produces a modification of the lysosomal membrane which increased the permeability of the lysosome to the substrate. The results also emphasize the difference in biological activity of compound 5c and 5d type molecules which chemically are similar except at C-3. Differences in the biological activity have been observed when the compounds were tested using various bacteria.

[10] = individual flask, 250 mg per flask (so in the source), 1 hour, 33° C
[11] = individual flask, 250 mg per flask (so in the source), 2 hours, 33° C

SMILES: CC12CCN=C1c1ccc3cc(O)ccc3c1CC2 (stereo not shown) [Compound 5c, 1,10,11,11a-tetrahydro-11a-methyl-2H-naphth[1,2-g]indol-7-ol]
- effect on the relative plating efficiency (KB cells [1]; 1 μg/ml): little effect
- activity at 1 µg/mL (KB cells [1]; Homo sapiens, KB, 168 h, 1 μg/ml): 91%
- activity at 10 µg/mL (KB cells [1]; Homo sapiens, KB, 168 h, 10 μg/ml): 38%
- cytotoxicity at 10 µg/mL (KB cells [1]; Homo sapiens, KB, 168 h, 10 μg/ml, 7 days, read-out: cells killed): 62%
- activity at 20 µg/mL (KB cells [1]; Homo sapiens, KB, 168 h, 20 μg/ml): 17%
- cytotoxicity at 20 µg/mL (KB cells [1]; Homo sapiens, KB, 168 h, 20 μg/ml, 7 days, read-out: cells killed): 83%
- AVERAGE OF TWO FLASK lysine incorporation (rat testis tubules [2]; average of two flasks): 1,944 CPM/100 mg tissue
- lysine incorporation into protein per 100 mg (rat testis tubules [2]; [10]): 1,616 CPM/100 mg and 2,273 CPM/100 mg
- lysine incorporation into protein per flask (rat testis tubules [2]; [10]): 3,325 CPM/FLASK and 4,575 CPM/FLASK
- induction of synthesis of acid phosphatase [3]: does not induce synthesis of acid phosphatase in the cell
- growth rate versus control (L-M cells [4]; 1 μg/ml): same growth rate as the control
- growth inhibition at 20 μg/ml (L-M cells [4]; 20 μg/ml): marked inhibition
- increase in cell numbers (L-M cells [4]; 20 μg/ml, after three days): no significant increase in cell numbers
- activity at 10 µg/mL (L-M cells [4]; Mus musculus, 96 h, 10 μg/ml, fourth day, read-out: growth as % of the control): 50%
- minimal effective concentration (L-M cells [4]; Mus musculus, L-M cells, 10 μg/ml or greater, read-out: concentration at which growth was inhibited): ≥ 10 µg/mL
- uptake of radioactive thymidine, uridine, and leucine (L-M cells [5]): inhibited
- Cell Pool (L-M cells [5]; 3H-thymidine): 700 Cpm/8×10^5 cells/hr
- Rate of incorporation (L-M cells [5]; 3H-thymidine): 1,300 Cpm/8×10^5 cells/hr
- Rate of uptake (L-M cells [5]; 3H-thymidine): 2,000 Cpm/8×10^5 cells/hr
- Cell Pool (L-M cells [5]; 3H-uridine): 1,600 Cpm/8×10^5 cells/hr
- Rate of incorporation (L-M cells [5]; 3H-uridine): 1,400 Cpm/8×10^5 cells/hr
- Rate of uptake (L-M cells [5]; 3H-uridine): 3,000 Cpm/8×10^5 cells/hr
- Cell Pool (L-M cells [5]; 14C-leucine): 1,200 Cpm/8×10^5 cells/hr
- Rate of incorporation (L-M cells [5]; 14C-leucine): 2,800 Cpm/8×10^5 cells/hr
- Rate of uptake (L-M cells [5]; 14C-leucine): 4,000 Cpm/8×10^5 cells/hr
- inhibition at 15 µg/mL (L-M cells [5]; Mus musculus, read-out: reduction of radioactivity present in the pool for each of the precursors): ~66%
- cell division (KB cells [6]): did not divide, or if limited division occurred, only a few small colonies were formed containing a small number of cells
- density of treated cells (KB cells [6]): less uniform density with areas of heavy and light staining
- position of nuclei in treated cells (KB cells [6]): located at the periphery of the cell which contained little cytoplasm
- AVERAGE glucose oxidation (rat testis tubules [7]; average of flasks): 8,181 CPM/100 mg TISSUE
- depression of glucose oxidation in vitro (rat testis tubules [7]; in words): depressed glucose oxidation in vitro more than compounds 4 c and 11b
- GLUCOSE OXIDATION per 100 mg (rat testis tubules [7]; [11]): 6,046 CPM/100 mg and 10,317 CPM/100 mg
- GLUCOSE OXIDATION per flask (rat testis tubules [7]; [11]): 12,450 CPM/FLASK and 21,027 CPM/FLASK
- % DEVIATION FROM CONTROL, glucose oxidation (rat testis tubules [7]; versus saline, 120 min): +20.8%
- minimal effective concentration (KB cells [8]): ≥ 10 µg/mL
- Relative acid phosphatase staining ([9]; 24 h, 1 hour in substrate): light
- Relative acid phosphatase staining ([9]; 24 h, 2 hours in substrate): medium
- Relative acid phosphatase staining ([9]; 24 h, 3 hours in substrate): heavy
- staining reaction versus control ([9]; 24 h, all three substrate incubation times): more intense staining reaction
- staining intensity versus untreated cells ([9]; cells treated for 2 hours): indistinguishable from untreated cells
